# Data published in patent US5721246A, “Heterobicyclic sulfonamide and sulfonic ester derivatives” (Eisai Co., Ltd., priority 1993, dated 1998).
# System: colon 38 cells
# Assay: In vitro antitumor test against colon 38 cells (MTT)
# Type: cell-based
# Conditions: 72 h, concentration at which 50% of mouse colon 38 cells are inhibited, 3 days
# Procedure: In vitro Antitumor Test Against Colon 38 Cells (Mouse Colon Cancer Cells)
# 2.5×10^3 (0.1 ml) of colon 38 cells suspended in RPMI1640 medium (a product of Sanko Junyaku) containing 10% of fetal bovine serum, penicillin (100 units/ml), streptomycin (100 μg/ml), mercaptoethanol (5×10^-5 M) and sodium pyruvate (1 mM) were inoculated in each well of a 96-well flat-bottomed microplate, and cultured in an incubator containing 5% of carbon dioxide at 37° C. for one day.
# A test compound according to the present invention was dissolved in dimethyl sulfoxide in a concentration of 20 mg/ml and the resulting solution was diluted with 10% fetal bovine serum/RPMI1640 medium to a concentration of 200 μg/ml. The resulting solution was diluted with 10% fetal bovine serum/RPMI1640 medium to prepare 3-fold serial dilutions with the maximum concentration being 200 μg/ml. The obtained dilutions were each poured into the well of the above-described culture plate in an amount of 0.1 ml. The resulting plate was cultured at 37° C. in an incubator containing 5% of carbon dioxide for 3 days.
# Thereafter, a solution of MTT[3-(4,5-dimethylthiazol-2-yl)-2,5-diphenyltetrazolium bromide] (having a concentration of 3.3 mg/ml) was added to each well in an amount of 0.05 ml. The resulting mixtures were further incubated for 2 hours. The supernatant was removed from each well by suction. Formed formazan was dissolved in 0.1 ml of dimethyl sulfoxide. The absorbance at 540 nm was determined with a microplate reader and the absorbance was taken as an index of the number of viable cells. The inhibitory ratio of the test compound was calculated according to the following formula to determine the IC50 of the test compound, with the IC50 referring to the concentration at which 50% of mouse colon 38 cells are inhibited: [formula] T: absorbance of well containing a test compound C: absorbance of well containing no test compound
row,IC50 [µg/mL],Compound
1,0.54,O=[N+]([O-])c1ccc(S(=O)(=O)Nc2cccc3c(Cl)c[nH]c23)cc1 [Example 2]
2,0.26,CS(=O)(=O)Nc1ccc(S(=O)(=O)Nc2cccc3c(Cl)c[nH]c23)cc1 [Example 4]
3,0.35,CSCc1ccc(S(=O)(=O)Nc2cccc3c(Cl)c[nH]c23)cc1 [Example 15]
4,0.1,NS(=O)(=O)c1ccc(S(=O)(=O)Nc2cccc3c(Cl)c[nH]c23)cc1 [Example 19]
5,0.69,CSc1ccc(S(=O)(=O)Nc2cccc3c(Cl)c[nH]c23)cc1 [Example 22]
6,0.13,CS(=O)(=O)c1ccc(S(=O)(=O)Nc2cccc3c(Cl)c[nH]c23)cc1 [Example 23]
7,0.09,C[S+]([O-])c1ccc(S(=O)(=O)Nc2cccc3c(Cl)c[nH]c23)cc1 (stereo not drawn) [Example 24]
8,0.17,CC(=O)Nc1ccc(S(=O)(=O)Nc2ccc(C)c3c(Cl)c[nH]c23)cc1 [Example 26]
9,0.14,C[S+]([O-])Cc1ccc(S(=O)(=O)Nc2cccc3c(Cl)c[nH]c23)cc1 (stereo not drawn) [Example 34]
10,0.57,CC(=O)Nc1ccc(S(=O)(=O)Nc2cccc3c(Cl)c[nH]c23)cc1Cl [Example 38]
11,0.57,COC(=O)Nc1ccc(S(=O)(=O)Nc2cccc3c(Cl)c[nH]c23)cc1 [Example 41]
12,0.47,CONS(=O)(=O)c1ccc(S(=O)(=O)Nc2cccc3c(Cl)c[nH]c23)cc1 [Example 43]
13,0.32,CN(C)S(=O)(=O)Nc1ccc(S(=O)(=O)Nc2cccc3c(Cl)c[nH]c23)cc1 [Example 49]
14,0.12,CS(=O)(=O)NCc1ccc(S(=O)(=O)Nc2cccc3c(Cl)c[nH]c23)cc1 [Example 53]
15,0.24,CNS(=O)(=O)c1ccc(S(=O)(=O)Nc2cccc3c(Cl)c[nH]c23)cc1 [Example 61]
16,0.23,NC(=S)c1ccc(S(=O)(=O)Nc2cccc3c(Cl)c[nH]c23)cc1 [Example 64]
17,0.47,CCNS(=O)(=O)c1ccc(S(=O)(=O)Nc2cccc3c(Cl)c[nH]c23)cc1 [Example 69]
18,0.42,CCS(=O)(=O)Nc1ccc(S(=O)(=O)Nc2cccc3c(Cl)c[nH]c23)cc1 [Example 70]
19,0.15,CNC(=O)c1ccc(S(=O)(=O)Nc2cccc3c(Cl)c[nH]c23)cc1 [Example 72]
20,0.11,CS(=O)(=O)Cc1ccc(S(=O)(=O)Nc2cccc3c(Cl)c[nH]c23)cc1 [Example 73]
21,0.09,CC(=O)N(C)c1ccc(S(=O)(=O)Nc2cccc3c(Cl)c[nH]c23)cc1 [Example 79]

# Further lines, the compound ahead of its results:
row,Compound,IC50 [µg/mL]
1,O=S(=O)(Nc1cccc2c(Cl)c[nH]c12)c1cccc(Cl)c1 [Example 7],0.22
2,Nc1ccc(S(=O)(=O)Nc2ccc(Cl)c3c(Cl)c[nH]c23)cc1 [Example 8],0.09
3,COc1ccc(S(=O)(=O)Nc2cccc3cn[nH]c23)cc1 [Example 13],0.63
4,O=S(=O)(Nc1cccc2c(Cl)c[nH]c12)c1ccc(Cl)nc1 [Example 14],0.23
5,N#Cc1c[nH]c2c(NS(=O)(=O)c3ccc(Cl)nc3)cccc12 [Example 18],0.11
6,NS(=O)(=O)c1ccc(S(=O)(=O)Nc2ccc(Cl)c3c(Cl)c[nH]c23)cc1 [Example 21],0.12
7,Cc1ccc(NS(=O)(=O)c2ccc(N)cc2)c2[nH]cc(Cl)c12 [Example 27],0.1
8,N#Cc1ccc(S(=O)(=O)Nc2cccc3c(C#N)c[nH]c23)cc1 [Example 28],0.12
9,N#Cc1ccc(NS(=O)(=O)c2ccc(N)cc2)c2[nH]cc(Cl)c12 [Example 32],0.17
10,Nc1ccc(S(=O)(=O)Nc2cccc3c(Cl)c[nH]c23)cn1 [Example 33],0.1
11,NS(=O)(=O)CCc1ccc(S(=O)(=O)Nc2cccc3c(Cl)c[nH]c23)cc1 [Example 35],0.14
12,CS(=O)(=O)CCc1ccc(S(=O)(=O)Nc2cccc3c(Cl)c[nH]c23)cc1 [Example 36],0.11
13,N#Cc1c[nH]c2c(NS(=O)(=O)c3ccc(N)nc3)cccc12 [Example 37],0.19
14,N#Cc1c[nH]c2c(NS(=O)(=O)c3ccc(Cl)s3)cccc12 [Example 40],0.27
15,Cc1c(Cl)cccc1S(=O)(=O)Nc1cccc2c(C#N)c[nH]c12 [Example 45],0.44
16,CC(C)Nc1ccc(S(=O)(=O)Nc2cccc3c(Cl)c[nH]c23)cn1 [Example 46],0.47
17,CN(C)CCNc1ccc(S(=O)(=O)Nc2cccc3c(Cl)c[nH]c23)cn1 [Example 47],0.22
18,N#Cc1c[nH]c2c(NS(=O)(=O)c3ccco3)cccc12 [Example 48],0.23
19,Cc1c[nH]c2c(NS(=O)(=O)c3ccc(S(C)(=O)=O)cc3)cccc12 [Example 50],0.22
20,N#Cc1cccc(S(=O)(=O)Nc2cccc3c(C#N)c[nH]c23)c1 [Example 51],0.09

row,Compound,IC50 [µg/mL]
1,CN(c1ccc(S(=O)(=O)Nc2cccc3c(Cl)c[nH]c23)cc1)S(C)(=O)=O [Example 52],0.14
2,O=S(=O)(Nc1cccc2c(Cl)c[nH]c12)c1ccc(S(=O)(=O)N2CCCC2)cc1 [Example 54],0.51
3,Cn1cnc(S(=O)(=O)Nc2cccc3c(C#N)c[nH]c23)c1 [Example 55],0.59
4,O=S(=O)(Nc1cccc2c(Cl)c[nH]c12)c1ccc(NCCO)nc1 [Example 56],0.2
5,O=S(=O)(Nc1cccc2c(Cl)c[nH]c12)c1ccc(S)nc1 [Example 57],0.66
6,O=S(=O)(Nc1cccc2c(Cl)c[nH]c12)c1ccc(NC2CC2)nc1 [Example 59],0.54
7,Cc1cncc(S(=O)(=O)Nc2cccc3c(C#N)c[nH]c23)c1 [Example 60],0.08
8,CS(=O)(=O)NCCc1ccc(S(=O)(=O)Nc2cccc3c(Cl)c[nH]c23)cc1 [Example 62],0.18
9,NS(=O)(=O)Cc1ccc(S(=O)(=O)Nc2cccc3c(Cl)c[nH]c23)cc1 [Example 63],0.12
10,N#Cc1c[nH]c2c(NS(=O)(=O)c3ccc(Br)cn3)cccc12 [Example 65],0.2
11,CC(=O)c1c[nH]c2c(NS(=O)(=O)c3cccc(Cl)c3)cccc12 [Example 67],0.87
12,N#Cc1c[nH]c2c(NS(=O)(=O)c3ccc(N)cc3)cc(Br)cc12 [Example 68],0.57
13,N#CCCNc1ccc(S(=O)(=O)Nc2cccc3c(Cl)c[nH]c23)cn1 [Example 71],0.23
14,CN(C)S(=O)(=O)c1ccc(S(=O)(=O)Nc2cccc3c(Cl)c[nH]c23)cc1 [Example 74],0.36
15,O=C(c1ccc(S(=O)(=O)Nc2cccc3c(Cl)c[nH]c23)cc1)N1CCCC1 [Example 75],0.28
16,NS(=O)(=O)Cc1ccc(S(=O)(=O)Nc2ccc(Cl)c3c(Cl)c[nH]c23)cc1 [Example 77],0.17
17,CS(=O)(=O)CCc1ccc(S(=O)(=O)Nc2cccc3c(C#N)c[nH]c23)cc1 [Example 78],0.26
18,O=S(=O)(Nc1cccc2c(Cl)c[nH]c12)c1ccc(O)nc1 [Example 80],0.19
19,CN(CCc1ccc(S(=O)(=O)Nc2cccc3c(Cl)c[nH]c23)cc1)S(C)(=O)=O [Example 81],0.25
20,CN(Cc1ccc(S(=O)(=O)Nc2cccc3c(Cl)c[nH]c23)cc1)S(C)(=O)=O [Example 83],0.27

# System: HCT116
# Assay: animal or person
# Conditions: Mus musculus, HCT-116, ip, 504 h; 50 mg/kg/day i.p., once a day for 4 days; nude mice; tumor weight on 21st day; read-out: Growth inhibition ratio
# Source text: In vivo Antitumor Test Against HCT116 (Human Colon Cancer)
# HCT116 (5 to 8×10^6) was subcutaneously transplanted to the flank of each nude mouse (BALB/c·nu/nu, aged 7 to 8 weeks, female). A test compound according to the present invention was suspended in a physiological saline containing 3.5% of dimethyl sulfoxide and 6.5% of Tween 80 and the obtained suspension was intraperitoneally administered to the mice treated above once a day in a predetermined dose for 4 days after the time at which the tumor volume had increased to about 100 mm^3, which was about 7 days after the transplantation. On the other hand, only a physiological saline containing 3.5% of dimethyl sulfoxide and 6.5% of Tween 80 was intraperitoneally administered to the mice of the control group. The control group was composed of ten mice, while each treated group was composed of five mice. On the 21st day after the initiation of administration, the tumor was extirpated from each mouse to determine its weight. The tumor growth inhibition ratio was determined by the following formula: [formula] T: average weight of tumor of the treated group C: average weight of tumor of the control group
row,Compound,inhibition in vivo at 50 mg/kg [%]
1,NS(=O)(=O)c1ccc(S(=O)(=O)Nc2cccc3c(Cl)c[nH]c23)cc1 [Example 19],88
2,Nc1ccc(S(=O)(=O)Nc2cccc3c(Cl)c[nH]c23)cn1 [Example 33],74
3,CC(C)Nc1ccc(S(=O)(=O)Nc2cccc3c(Cl)c[nH]c23)cn1 [Example 46],84
4,CS(=O)(=O)NCc1ccc(S(=O)(=O)Nc2cccc3c(Cl)c[nH]c23)cc1 [Example 53],86
5,CS(=O)(=O)Cc1ccc(S(=O)(=O)Nc2cccc3c(Cl)c[nH]c23)cc1 [Example 73],78

# Same assay, conditions: Mus musculus, HCT-116, ip, 504 h; 100 mg/kg/day i.p., once a day for 4 days; nude mice; tumor weight on 21st day; read-out: Growth inhibition ratio
row,Compound,inhibition in vivo at 100 mg/kg [%]
1,CS(=O)(=O)Nc1ccc(S(=O)(=O)Nc2cccc3c(Cl)c[nH]c23)cc1 [Example 4],97
2,NS(=O)(=O)c1ccc(S(=O)(=O)Nc2ccc(Cl)c3c(Cl)c[nH]c23)cc1 [Example 21],95
3,CS(=O)(=O)c1ccc(S(=O)(=O)Nc2cccc3c(Cl)c[nH]c23)cc1 [Example 23],87
4,N#Cc1ccc(S(=O)(=O)Nc2cccc3c(C#N)c[nH]c23)cc1 [Example 28],77
5,N#Cc1c[nH]c2c(NS(=O)(=O)c3ccc(N)nc3)cccc12 [Example 37],93
6,CNC(=O)c1ccc(S(=O)(=O)Nc2cccc3c(Cl)c[nH]c23)cc1 [Example 72],87
